Reference: patent US20250312352A1, “GLP-1R MODULATING COMPOUNDS” (Gilead Sciences, Inc., priority 2021, published 2025)

The compounds below were run against T1, GLP-1R (Homo sapiens, UniProt P43220) (assay: GLP-1R activation cAMP assay (Assay 1 or Assay 2)). Conditions: cAMP increase in CHO cells stably expressing GLP-1R; compounds run on one of the two cAMP assays.
T1 construct: host or cells: CHO cells
T1 sequence (P43220 24-463): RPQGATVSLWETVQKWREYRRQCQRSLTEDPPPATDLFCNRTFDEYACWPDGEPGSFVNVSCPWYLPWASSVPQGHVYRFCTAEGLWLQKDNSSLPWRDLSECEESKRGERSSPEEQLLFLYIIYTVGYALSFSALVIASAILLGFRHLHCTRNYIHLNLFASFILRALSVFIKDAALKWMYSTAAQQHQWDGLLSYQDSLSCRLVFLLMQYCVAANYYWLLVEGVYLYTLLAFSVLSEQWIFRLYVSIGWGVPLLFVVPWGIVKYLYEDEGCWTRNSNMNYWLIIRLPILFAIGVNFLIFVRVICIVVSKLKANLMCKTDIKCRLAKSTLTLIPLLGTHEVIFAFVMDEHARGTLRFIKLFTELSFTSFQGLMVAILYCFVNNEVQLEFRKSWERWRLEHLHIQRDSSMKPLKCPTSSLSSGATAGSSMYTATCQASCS
Assay type: cell-based
Outline: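 EC50 values come from a sigmoidal fit of HTRF-detected cAMP rise versus log agonist concentration. GLP-1R-expressing CHO cells, equilibrated 1 h at 37 °C in HBSS with HEPES and BSA, received a 10-point compound dose series for 30 min before detection.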
In the case of `O=C(O)c1ccc2nc(Cc3cc(F)c(-c4cccc(OCc5nnc(OC6CC(C(F)F)C6)s5)n4)cc3F)n(C[C@@H]3CCO3)c2c1` (stereo partly drawn) [Example 347, (S)-2-(4-(6-((5-(3-(difluoromethyl)cyclobutoxy)-1,3,4-thiadiazol-2-yl)methoxy)pyridin-2-yl)-2,5-difluorobenzyl)-1-(oxetan-2-ylmethyl)-1H-benzo[d]imidazole-6-carboxylic acid], the EC50 is reported as 0.271 nM. For `CC(=O)N1CC(Oc2nnc(COc3cccc(-c4cc(F)c(Cc5nc6ccc(C(=O)O)cc6n5C[C@@H]5CCO5)cc4F)n3)s2)C1` [Example 348, (S)-2-(4-(6-((5-((1-acetylazetidin-3-yl)oxy)-1,3,4-thiadiazol-2-yl)methoxy)pyridin-2-yl)-2,5-difluorobenzyl)-1-(oxetan-2-ylmethyl)-1H-benzo[d]imidazole-6-carboxylic acid], the EC50 was 1.87 nM. Compound `CCOc1nc(C)c(COc2cccc(-c3cc(F)c(Cc4nc5ccc(C(=O)O)cc5n4C[C@@H]4CCO4)cc3F)n2)s1` [Example 349, (S)-2-(4-(6-((2-ethoxy-4-methylthiazol-5-yl)methoxy)pyridin-2-yl)-2,5-difluorobenzyl)-1-(oxetan-2-ylmethyl)-1H-benzo[d]imidazole-6-carboxylic acid] has an EC50 of 0.323 nM. Work on `O=C(O)c1ccc2nc(Cc3cc(F)c(-c4cccc(OCc5nnc(OCC(F)(F)F)s5)n4)cc3F)n(C[C@@H]3CCO3)c2c1` [Example 350, (S)-2-(2,5-difluoro-4-(6-((5-(2,2,2-trifluoroethoxy)-1,3,4-thiadiazol-2-yl)methoxy)pyridin-2-yl)benzyl)-1-(oxetan-2-ylmethyl)-1H-benzo[d]imidazole-6-carboxylic acid] yielded an EC50 of 0.209 nM. In the case of `COc1nnc(COc2cccc(-c3cc(F)c(Cc4nc5c(F)cc(C(=O)O)cc5n4C[C@@H]4CCO4)cc3F)n2)s1` [Example 351, (S)-2-(2,5-difluoro-4-(6-((5-methoxy-1,3,4-thiadiazol-2-yl)methoxy)pyridin-2-yl)benzyl)-4-fluoro-1-(oxetan-2-ylmethyl)-1H-benzo[d]imidazole-6-carboxylic acid], the EC50 is reported as 0.182 nM. `O=C(O)c1ccc2nc(Cc3cc(F)c(-c4cccc(OCc5nnc(OCC(F)F)s5)n4)cc3F)n(C[C@@H]3CCO3)c2c1` [Example 352, (S)-2-(4-(6-((5-(2,2-difluoroethoxy)-1,3,4-thiadiazol-2-yl)methoxy)pyridin-2-yl)-2,5-difluorobenzyl)-1-(oxetan-2-ylmethyl)-1H-benzo[d]imidazole-6-carboxylic acid] showed an EC50 of 0.52 nM. `CCOc1nc(Cl)c(COc2cccc(-c3cc(F)c(Cc4nc5ccc(C(=O)O)cc5n4C[C@@H]4CCO4)cc3F)n2)s1` [Example 353, (S)-2-(4-(6-((4-chloro-2-ethoxythiazol-5-yl)methoxy)pyridin-2-yl)-2,5-difluorobenzyl)-1-(oxetan-2-ylmethyl)-1H-benzo[d]imidazole-6-carboxylic acid] showed an EC50 of 0.188 nM. `Cc1nc(C)c(COc2cccc(-c3cc(F)c(Cc4nc5ccc(C(=O)O)cc5n4C[C@@H]4CCO4)cc3F)n2)s1` [Example 354, (S)-2-(4-(6-((2,4-dimethylthiazol-5-yl)methoxy)pyridin-2-yl)-2,5-difluorobenzyl)-1-(oxetan-2-ylmethyl)-1H-benzo[d]imidazole-6-carboxylic acid] showed an EC50 of 0.622 nM. With `Cn1cc(-c2ncc(COc3cccc(-c4cc(F)c(Cc5nc6ccc(C(=O)O)cc6n5C[C@@H]5CCO5)cc4F)n3)s2)cn1` [Example 355, (S)-2-(2,5-difluoro-4-(6-((2-(1-methyl-1H-pyrazol-4-yl)thiazol-5-yl)methoxy)pyridin-2-yl)benzyl)-1-(oxetan-2-ylmethyl)-1H-benzo[d]imidazole-6-carboxylic acid] the EC50 was 0.355 nM. `O=C(O)c1ccc2nc(Cc3cc(F)c(-c4cccc(OCc5ccc(C#Cc6cc[nH]c(=O)c6)cc5F)n4)cc3F)n(C[C@@H]3CCO3)c2c1` [Example 356, (S)-2-(2,5-difluoro-4-(6-((2-fluoro-4-((2-oxo-1,2-dihydropyridin-4-yl)ethynyl)benzyl)oxy)pyridin-2-yl)benzyl)-1-(oxetan-2-ylmethyl)-1H-benzo[d]imidazole-6-carboxylic acid] was tested, and the EC50 was 0.099 nM. In the case of `Cn1ccc(C#Cc2ccc(COc3cccc(-c4cc(F)c(Cc5nc6ccc(C(=O)O)cc6n5C[C@@H]5CCO5)cc4F)n3)c(F)c2)cc1=O` [Example 357, (S)-2-(2,5-difluoro-4-(6-((2-fluoro-4-((1-methyl-2-oxo-1,2-dihydropyridin-4-yl)ethynyl)benzyl)oxy)pyridin-2-yl)benzyl)-1-(oxetan-2-ylmethyl)-1H-benzo[d]imidazole-6-carboxylic acid], the EC50 is reported as 0.508 nM. `Cn1cc(C#Cc2ccc(COc3cccc(-c4cc(F)c(Cc5nc6ccc(C(=O)O)cc6n5C[C@@H]5CCO5)cc4F)n3)nc2Cl)cn1` [Example 358, (S)-2-(4-(6-((6-chloro-5-((1-methyl-1H-pyrazol-4-yl)ethynyl)pyridin-2-yl)methoxy)pyridin-2-yl)-2,5-difluorobenzyl)-1-(oxetan-2-ylmethyl)-1H-benzo[d]imidazole-6-carboxylic acid] showed an EC50 of 0.243 nM. `Cn1ncc(C#Cc2ccc(COc3cccc(-c4cc(F)c(Cc5nc6ccc(C(=O)O)cc6n5C[C@@H]5CCO5)cc4F)n3)c(F)c2)c1C(N)=O` [Example 359, (S)-2-(4-(6-((4-((5-carbamoyl-1-methyl-1H-pyrazol-4-yl)ethynyl)-2-fluorobenzyl)oxy)pyridin-2-yl)-2,5-difluorobenzyl)-1-(oxetan-2-ylmethyl)-1H-benzo[d]imidazole-6-carboxylic acid] showed an EC50 of 0.051 nM. `COc1nc(C#Cc2cnn(C)c2)ccc1COc1cccc(-c2cc(F)c(Cc3nc4ccc(C(=O)O)cc4n3C[C@@H]3CCO3)cc2F)n1` [Example 360, (S)-2-(2,5-difluoro-4-(6-((2-methoxy-6-((1-methyl-1H-pyrazol-4-yl)ethynyl)pyridin-3-yl)methoxy)pyridin-2-yl)benzyl)-1-(oxetan-2-ylmethyl)-1H-benzo[d]imidazole-6-carboxylic acid] was tested, and the EC50 was 0.174 nM. `Cn1ncc(C#Cc2ccc(COc3cccc(-c4cc(F)c(Cc5nc6ccc(C(=O)O)cc6n5C[C@@H]5CCO5)cc4F)n3)c(F)c2)c1Cl` [Example 361, (S)-2-(4-(6-((4-((5-chloro-1-methyl-1H-pyrazol-4-yl)ethynyl)-2-fluorobenzyl)oxy)pyridin-2-yl)-2,5-difluorobenzyl)-1-(oxetan-2-ylmethyl)-1H-benzo[d]imidazole-6-carboxylic acid] gave an EC50 of 0.62 nM. In the case of `Cn1cc(C#Cc2ccc(COc3cccc(-c4cc(F)c(Cc5nc6ccc(C(=O)O)cc6n5C[C@@H]5CCO5)cc4F)n3)c(F)n2)cn1` [Example 362, (S)-2-(2,5-difluoro-4-(6-((2-fluoro-6-((1-methyl-1H-pyrazol-4-yl)ethynyl)pyridin-3-yl)methoxy)pyridin-2-yl)benzyl)-1-(oxetan-2-ylmethyl)-1H-benzo[d]imidazole-6-carboxylic acid], the EC50 is reported as 0.33 nM. With `Cn1cc(C#Cc2ccc(COc3cccc(-c4cc(F)c(Cc5nc6ccc(C(=O)O)cc6n5C[C@@H]5CCO5)cc4F)n3)c(Cl)n2)cn1` [Example 363, (S)-2-(4-(6-((2-chloro-6-((1-methyl-1H-pyrazol-4-yl)ethynyl)pyridin-3-yl)methoxy)pyridin-2-yl)-2,5-difluorobenzyl)-1-(oxetan-2-ylmethyl)-1H-benzo[d]imidazole-6-carboxylic acid] the EC50 was 0.295 nM. `Cc1c(C#Cc2ccc(COc3cccc(-c4cc(F)c(Cc5nc6ccc(C(=O)O)cc6n5C[C@@H]5CCO5)cc4F)n3)c(F)c2)cnn1C` [Example 364, (S)-2-(4-(6-((4-((1,5-dimethyl-1H-pyrazol-4-yl)ethynyl)-2-fluorobenzyl)oxy)pyridin-2-yl)-2,5-difluorobenzyl)-1-(oxetan-2-ylmethyl)-1H-benzo[d]imidazole-6-carboxylic acid] showed an EC50 of 0.929 nM. Compound `CNC(=O)c1cc(Cl)c(COc2cccc(-c3cc(F)c(Cc4nc5c(F)cc(C(=O)O)cc5n4[C@@H]4COCC4(C)C)cc3F)n2)cn1` [Example 365, (S)-2-(4-(6-((4-chloro-6-(methylcarbamoyl)pyridin-3-yl)methoxy)pyridin-2-yl)-2,5-difluorobenzyl)-1-(4,4-dimethyltetrahydrofuran-3-yl)-4-fluoro-1H-benzo[d]imidazole-6-carboxylic acid] has an EC50 of 0.164 nM. `Cn1ccc(CNC(=O)c2cc(Cl)c(COc3cccc(-c4cc(F)c(Cc5nc6ccc(C(=O)O)cc6n5C[C@@H]5CCO5)cc4F)n3)cn2)n1` [Example 366, (S)-2-(4-(6-((4-chloro-6-(((1-methyl-1H-pyrazol-3-yl)methyl)carbamoyl)pyridin-3-yl)methoxy)pyridin-2-yl)-2,5-difluorobenzyl)-1-(oxetan-2-ylmethyl)-1H-benzo[d]imidazole-6-carboxylic acid] gave an EC50 of 0.56 nM. With `COc1nnc(COc2nc(-c3cc(F)c(Cc4nc5c(Cl)cc(C(=O)O)cc5n4[C@@H]4COCC4(C)C)cc3F)ccc2F)s1` [Example 367, (S)-4-chloro-2-(2,5-difluoro-4-(5-fluoro-6-((5-methoxy-1,3,4-thiadiazol-2-yl)methoxy)pyridin-2-yl)benzyl)-1-(4,4-dimethyltetrahydrofuran-3-yl)-1H-benzo[d]imidazole-6-carboxylic acid] the EC50 was 0.235 nM. `COc1nnc(COc2nc(-c3cc(F)c(Cc4nc5ccc(C(=O)O)cc5n4CC4(CF)CC4)c(F)c3F)ccc2F)s1` [Example 368, 1-((1-(fluoromethyl)cyclopropyl)methyl)-2-(2,3,6-trifluoro-4-(5-fluoro-6-((5-methoxy-1,3,4-thiadiazol-2-yl)methoxy)pyridin-2-yl)benzyl)-1H-benzo[d]imidazole-6-carboxylic acid] showed an EC50 of 0.712 nM. `Cc1cc(Cc2nc3ccc(C(=O)O)cc3n2C[C@@H]2CCO2)c(Cl)cc1-c1ccc(F)c(OCc2ncc(C(F)(F)F)s2)n1` [Example 369, (S)-2-(2-chloro-4-(5-fluoro-6-((5-(trifluoromethyl)thiazol-2-yl)methoxy)pyridin-2-yl)-5-methylbenzyl)-1-(oxetan-2-ylmethyl)-1H-benzo[d]imidazole-6-carboxylic acid] gave an EC50 of 0.683 nM.
